In test [1] the test system is ply (pneumolysin) transcript. Kind of test: RT-qPCR, relative expression of virulence gene ply. In kind it is cell-based, Streptococcus pneumoniae. Conditions: TIGR4; 10 μM CPP-anti-rpoB PNA; normalised to 5S rRNA; n = 3. The protocol: (§1) Because the product of rpoB is the β-subunit of the bacterial RNA-polymerase, which is responsible for RNA synthesis, downregulation of rpoB by treatment with antisense PNAs is expected to affect gene expression. Therefore, we tested the relative expression of two virulence factor genes following treatment with 10 μM CPP-anti-rpoB PNAs compared to expression in the mock-treated control as an example (Fig. 3C and D).
(§2) For RNA isolation, 450 μL bacterial suspension (10^5 CFU/mL in BHI) was prepared for each experimental condition, treated with CPP-PNA conjugates as indicated, and incubated in a 2-mL reaction tube for 6 h at 37°C and 7 rpm (Rotor SB3; Stuart, Staffordshire, United Kingdom). Subsequently, five samples per condition were pooled. Bacteria were pelleted immediately, shock-frozen in liquid nitrogen, and stored at −80°C until use. Total RNA was extracted according to the protocol published by Li-Korotky et al. ([46]). […]
(§3) cDNA synthesis was performed using the Superscript First-Strand Synthesis system for RT-qPCR (Invitrogen, Thermo Fisher Scientific, Darmstadt, Germany). Quantitative PCR amplification was conducted with SYBR Green (Thermo Fisher Scientific) using the LightCycler 480 real-time PCR system (Roche Diagnostics GmbH, Mannheim, Germany). […] Relative expression was calculated using the 2^–ΔΔ^CT method ([27]). […]
A general note: In qPCR the cycle at which signal appears reflects the starting amount.

Test [2] concerns rpoB mRNA. The experiment in a line: RT-qPCR, relative expression of rpoB. It is filed as cell-based, Streptococcus pneumoniae. Conditions: TIGR4; 10 μM CPP-anti-rpoB PNA; 6 h; normalised to 5S rRNA; n = 3. Here is the method:
(§4) We investigated the influence of treatment with CPP-conjugated antisense PNAs on the amount of target gene mRNA in S. pneumoniae using reverse transcription-quantitative PCR (RT-qPCR) (Fig. 3). S. pneumoniae strain TIGR4 was treated with a sublethal dose (log CFU reduction of <2) of CPP-PNA conjugates. Transcript abundance of the 5S rRNA gene was used for normalization ([27]). Target gene mRNA levels in mock-treated bacteria served as controls. Treatment with 7.5 μM CPP-anti-gyrA PNAs and 10 μM CPP-anti-rpoB PNAs led to significant reductions in the respective target gene transcripts compared to the untreated control sample (Fig. 3).
(§5) For RNA isolation, 450 μL bacterial suspension (10^5 CFU/mL in BHI) was prepared for each experimental condition, treated with CPP-PNA conjugates as indicated, and incubated in a 2-mL reaction tube for 6 h at 37°C and 7 rpm (Rotor SB3; Stuart, Staffordshire, United Kingdom). Subsequently, five samples per condition were pooled. […]
as §3

The test system of test [3] is pspA (pneumococcal surface protein A) transcript. Kind of test: RT-qPCR, relative expression of virulence gene pspA. In kind it is cell-based, Streptococcus pneumoniae. Conditions: TIGR4; 10 μM CPP-anti-rpoB PNA; normalised to 5S rRNA; n = 3. The protocol: as §1, §2, §3
For test [4], the system named is gyrA mRNA. The experiment in a line: RT-qPCR, relative expression of gyrA. In kind it is cell-based, Streptococcus pneumoniae. Conditions: TIGR4; 7.5 μM CPP-anti-gyrA PNA; 6 h; normalised to 5S rRNA; 2^–ΔΔCT; n = 3. Here is the method:
as §4, §5, §3

Test [5] deals with Detroit 562 cells infected with S. pneumoniae TIGR4. The experiment in a line: Cell-based infection model, bacterial CFU. Further details: species or system Streptococcus pneumoniae. Conditions: 20 μM CPP-PNA; MOI 5; 3 h at 37°C; n = 3. The protocol:
Detroit 562 human pharyngeal epithelial cells were infected with S. pneumoniae TIGR4 at a multiplicity of infection (MOI) of 5. Cells were treated with 20 μM (RXR)4XB-anti-gyrA PNA or scrambled control PNA, respectively. As a positive control, 1 μg levofloxacin, corresponding to 3× MIC, was added. Following incubation for 3 h at 37°C, bacterial CFU counts were determined for CPP-antisense PNA-treated samples and compared to those in nontreated samples and in samples containing scrambled control PNAs (Fig. 4A). Treatment with (RXR)4XB-anti-gyrA caused a log CFU reduction of 1. Addition of levofloxacin led to a log CFU reduction of 2.
The human pharynx carcinoma epithelial cell line Detroit 562 (ATCC CCL138) was cultivated in Dulbecco’s modified Eagle medium (DMEM)/F12 (1:1) (Thermo Fisher Scientific, Schwerte, Germany) supplemented with 10% fetal bovine serum at 37°C and 5% CO2. Confluent Detroit 562 cells were infected with S. pneumoniae TIGR4 at an MOI of 5. Cultures were treated with 20 μM CPP-PNAs or 1 μg levofloxacin, respectively, and incubated for 3 h at 37°C, 5% CO2. After incubation, the supernatant was collected. Adherent cells were detached with Accutase solution (Merck KGaA, Darmstadt, Germany), collected by centrifugation for 10 min at 4,000 × g, and combined with the supernatant. Cells were pelleted by centrifugation, washed twice with PBS, and suspended in PBS. CFU/well was determined following serial dilution and plating on Todd Hewitt Broth, supplemented with Yeast, (THY) agar plates.

For test [6], the system named is S. pneumoniae TIGR4. The experiment in a line: In vitro time-killing assay (killing kinetics). The conditions noted are these: 10 μM, n = 3. In kind it is cell-based, Streptococcus pneumoniae. Here is the method: The antimicrobial activity kinetics of TAT- and (RXR)4XB-conjugated anti-gyrA PNA constructs in S. pneumoniae TIGR4 were studied using an in vitro time-killing assay. Bacteria were treated with 10 μM CPP-antisense PNAs or scrambled control PNAs (Fig. 2). Samples were collected every 2 h following antisense treatment. CFU/mL was determined by plating of serial dilutions and plotted over time. […] In contrast, (RXR)4XB-conjugated anti-gyrA PNA treatment led to a continuous reduction in S. pneumoniae CFU until complete eradication after 12 h.
For monitoring of killing kinetics, samples were collected 2 to 12 h post-treatment. Viable cell counts were determined by plating appropriate dilutions on BHI agar plates. CFU were determined by visual inspection following overnight incubation at 37°C under a 5% CO2 atmosphere. At time point 0, the viable cell count corresponded to 1 × 10^5 to 3 × 10^5 CFU/mL.

The source of these data is publication PMC9784828, “Antimicrobial Activity of Peptide-Coupled Antisense Peptide Nucleic Acids in Streptococcus pneumoniae” (Microbiology Spectrum, 2022).

In the case of “GRKKRRQRRRYK-eg-ctgccaagatga [TAT-anti-rpoB PNA, HIV-1 TAT (48–57) peptide coupled to antisense PNA against S. pneumoniae rpoB]”, the “Expression of ply relative to mock-treated control” value in test [1] is on record as 45%. In test [2], the “rpoB transcript level relative to mock-treated control” value is 45%. For the same substance, in test [3], the “Expression of pspA relative to mock-treated control” value is listed as 57%.
As to “RXRRXRRXRRXRXB-eg-ctgccaagatga [(RXR)4XB-anti-rpoB PNA, (RXR)4XB peptide coupled to antisense PNA against rpoB]”, the “Expression of ply relative to mock-treated control” value in test [1] was 56%. In test [2], the “rpoB transcript level relative to mock-treated control” value was 51%. Moreover, in test [3], the “Expression of pspA relative to mock-treated control” value is on record as “no significant reduction”.
Take “RXRRXRRXRRXRXB-eg-tgcattaata [(RXR)4XB-anti-gyrA PNA, (RXR)4XB peptide coupled to antisense PNA against gyrA]”: the “gyrA mRNA level relative to mock-treated control” value in test [4] was 45%. In test [5], the “log CFU reduction in infected Detroit 562 cells” value worked out at 1. Moreover, the “Time to complete eradication of S. pneumoniae CFU” value in test [6] is given as 12 h.
